# Assay results: article PMC8072890, “Aminoalkylamides of Eremomycin Exhibit an Improved Antibacterial Activity” (Pharmaceuticals, 2021)
# Assays:
# [1] = tested on: S. aureus (strain 10, clinical isolate); assay: Mouse staphylococcal sepsis model, single IV administration; assay type: in vivo, mice (SHK colony); conditions: for Survival: single IV, 30 min after infection, n = 10
# Description: A comparative study of the efficacy of eremomycin N-(2-((2-fluorobenzyl)amino)ethyl)amide (4e) and vancomycin was carried out in a mice staphylococcal sepsis model. Healthy female mice of the SHK colony weighing 20–22 g after two-week quarantine were randomized into groups (n = 10) and received S. aureus as the infectious agent (strain 10, clinical isolate, adapted for growth in vivo by five-fold passaging in mice). In the experiment, female mice of the SHK colony weighing 20–22 g were used. S. aureus (strain 10, clinical isolate), adapted for growth in vivo by five-fold passaging in mice, was used as the infectious agent. Initially, the lethal dose (LD100) of staphylococcus was determined for this mouse line using the intravenous infection route. The mice deaths were counted daily for 10 days. Thus, the lethal dose (LD100) was defined as 8 × 10^8 CFU/mouse. Afterwards, the mice were seated in cages of 10 heads and were infected intravenously with S. aureus at a lethal dose, and the efficacy of the tested drugs was determined by the ED50 value (i.e., the dose at which 50% of the experimental animals survive). Then, 30 min after infection, the mice were injected intravenously with eremomycin N-(2-((2-fluorobenzyl)amino)ethyl)amide (4e) at single doses from 0.1 to 2.5 mg/kg. or vancomycin at doses from 2.5 to 7.5 mg/kg. As a control dose, a group of untreated animals infected with a lethal dose of S. aureus was present in the experiment. The determination of ED50 of the tested compounds was carried out in one experiment under a single control using the Behrens method.
# E. faecalis 559 = assay type: cell-based; conditions: sensitive strain; broth dilution micromethod, CLSI; modal values (or range) of 3–5 independent tests
# Excerpt: (§1) The antimicrobial activity of semisynthetic derivatives of eremomycin 4a–q was studied in comparison with vancomycin on a wide panel of Gram-positive bacteria sensitive (Staphylococcus aureus ATCC 29213, S. aureus R-2, S. haemoliticus 602, S. pneumoniae ATCC 6305, Enteroccus faecium 4, and E. faecalis 559) and resistant to vancomycin (S. aureus 3797, S.aureus 3798, E. faecium 2, E. faecium 3576, E. faecalis 9, E. faecalis 583, and E. gallinarum BΠ 4147), information about the strains given in Table S3. The minimum microbial inhibitory concentration (MIC) for the test compounds was determined by the broth dilution micromethod according to CLSI guidelines, and vancomycin and a standard strain S. aureus ATCC 29213 used as controls (Figure 2 and Tables S4 and S5).
# (§2) Table S4. Antibacterial activity of vancomycin and derivatives 4a–q against sensitive Gram-positive bacteria.
# (§3) Strain/MIC (Minimum inhibitory concentration, μg/ml)*
# (§4) Compound m n R S.aureus АТСС S.aureus R-2 S.haemoliticus S.pneumoniae АТСС E. faecium 4 E. faecalis 559
# (§5) *MICs are presented as modal values for 3–5 independently replicated MIC tests for each strain and for the antibiotics. In the range of the
# (§6) obtained MIC values, the obtained modal values are highlighted in bold.
# E. faecium 4 = assay type: cell-based; conditions: sensitive strain; broth dilution micromethod, CLSI; modal values (or range) of 3–5 independent tests
# Excerpt: as §1, §2, §3, §4, §5, §6
# S. aureus R-2 = assay type: cell-based; conditions: sensitive strain; broth dilution micromethod, CLSI; modal values (or range) of 3–5 independent tests
# Excerpt: as §1, §2, §3, §4, §5, §6
# S. haemoliticus 602 = assay type: cell-based; conditions: sensitive strain; broth dilution micromethod, CLSI; modal values (or range) of 3–5 independent tests
# Excerpt: as §1, §2, §3, §4, §5, §6
# [2] = tested on: Staphylococcus aureus ATCC 29213; assay type: cell-based; conditions: vancomycin-sensitive control strain; broth dilution micromethod, CLSI; modal values (or range) of 3–5 independent tests
# Excerpt: as §1, §2, §3, §4, §5, §6
# S. pneumoniae ATCC 6305 = assay: MIC, broth dilution micromethod (CLSI); assay type: cell-based; conditions: sensitive strain, modal values (or range) of 3–5 independent tests
# Excerpt: as §1, §2, §3, §4, §5, §6
# E. faecalis 583 = assay type: cell-based; conditions: strain resistant to vancomycin; broth dilution micromethod, CLSI; modal values (or range) of 3–5 independent tests
# Excerpt: as §1
# (§7) Table S5. Antibacterial activity of vancomycin and derivatives 4a–q against resistant Gram-positive bacteria.
# (§8) Strain/MIC (minimum inhibitory concentration; μg/ml)
# (§9) Compound m n R S.aureus 3797 S.aureus 3798 E. faecium 2 E. faecium 3576 E. faecalis 9 E. faecalis 583 E. gallinarum
# (§10) *MICs are presented as modal values for 3–5 independently replicate MIC tests for each strain and for the antibiotics. In the range of the obtained MIC
# (§11) values, the obtained modal values are highlighted in bold.
# E. faecalis 9 = assay type: cell-based; conditions: strain resistant to vancomycin; broth dilution micromethod, CLSI; modal values (or range) of 3–5 independent tests
# Excerpt: as §1, §7, §8, §9, §10, §11
# E. faecium 2 = assay type: cell-based; conditions: strain resistant to vancomycin; broth dilution micromethod, CLSI; modal values (or range) of 3–5 independent tests
# Excerpt: as §1, §7, §8, §9, §10, §11
# E. faecium 3576 = assay type: cell-based; conditions: strain resistant to vancomycin; broth dilution micromethod, CLSI; modal values (or range) of 3–5 independent tests
# Excerpt: as §1, §7, §8, §9, §10, §11
# E. gallinarum BΠ 4147 = assay type: cell-based; conditions: strain resistant to vancomycin; broth dilution micromethod, CLSI; modal values (or range) of 3–5 independent tests
# Excerpt: as §1, §7, §8, §9, §10, §11
# S. aureus 3797 = assay type: cell-based; conditions: strain resistant to vancomycin; broth dilution micromethod, CLSI; modal values (or range) of 3–5 independent tests
# Excerpt: as §1, §7, §8, §9, §10, §11
# S.aureus 3798 = assay type: cell-based; conditions: strain resistant to vancomycin; broth dilution micromethod, CLSI; modal values (or range) of 3–5 independent tests
# Excerpt: as §1, §7, §8, §9, §10, §11
Substance,Survival ([1]; dose 0.5 mg/kg) [%],Survival ([1]; dose 1.5 mg/kg) [%],Survival ([1]; dose 2.5 mg/kg) [%],Survival ([1]; dose 3.5 mg/kg) [%],Survival ([1]; dose 4.5 mg/kg) [%],Survival ([1]; dose 5.5 mg/kg) [%],"ED50 ([1]; mice infected IV with lethal dose of S. aureus (8 × 10^8 CFU/mouse), single IV dose 30 min after infection, n = 10 per group, observed 14 days, Behrens method) [mg/kg]",MIC E. faecalis 559 (E. faecalis 559) [µg/mL],MIC E. faecium 4 (E. faecium 4) [µg/mL],MIC S.aureus R-2 (S. aureus R-2) [µg/mL],MIC S.haemoliticus 602 (S. haemoliticus 602) [µg/mL],MIC S.aureus ATCC 29213 [2] [µg/mL],MIC S.pneumoniae ATCC 6305 (S. pneumoniae ATCC 6305) [µg/mL],MIC E. faecalis 583 (E. faecalis 583) [µg/mL],MIC E. faecalis 9 (E. faecalis 9) [µg/mL],MIC E. faecium 2 (E. faecium 2) [µg/mL],MIC E. faecium 3576 (E. faecium 3576) [µg/mL],MIC E. gallinarum ВП 4147 (E. gallinarum BΠ 4147) [µg/mL],MIC S.aureus 3797 (S. aureus 3797) [µg/mL],MIC S.aureus 3798 (S.aureus 3798) [µg/mL]
Eremomycin,20,40,80,80,100,100,1.8,,,,,,,,,,,,,
"Eremomycin N-(2-((2,3,4,5,6-pentafluorobenzyl)amino)ethyl)amide [4p]",,,,,,,,1,1,0.25,0.25 to 0.5,0.25,0.01,1,0.25,1,4,2,1 to 2,4
"Eremomycin N-(2-((2,4-dichlorobenzyl)amino)ethyl)amide [4n]",,,,,,,,1,1,0.25 to 0.5,0.25,0.5,0.03 to 0.06,2,0.25,2,2,2,1,2
"Eremomycin N-(2-((2,6-difluorobenzyl)amino)ethyl)amide [4j]",,,,,,,,0.25,0.25 to 0.5,0.06,0.125,0.03 to 0.06,0.03,0.5,0.03,0.5 to 1,1,1,0.5,1
Eremomycin N-(2-((2-chloro-4-fluorobenzyl)amino)ethyl)amide [4l],,,,,,,,1,0.25,0.25,0.125,0.125,0.03 to 0.06,1,0.25,1,2,1,2,1
Eremomycin N-(2-((2-chloro-6-fluorobenzyl)ethyl)amide [4m],,,,,,,,0.5 to 1,0.5,0.125 to 0.25,0.125,0.25,0.06,1,0.25 to 0.5,1,2,2,2,2
Eremomycin N-(2-((2-fluorobenzyl)amino)propyl)amide [4f],,,,,,,,0.25 to 0.5,0.25,0.03,0.25 to 0.5,0.125,0.03,1,0.06,1,1,0.5,0.5,2
"Eremomycin N-(2-((3,4-dichlorobenzyl)amino)ethyl)amide [4o]",,,,,,,,2,1,1,0.5,1,0.5,2,0.25 to 0.5,2,2,2,2,1 to 2
"Eremomycin N-(2-((3,5-difluorobenzyl)amino)ethyl)amide [4k]",,,,,,,,0.5,0.5,0.125 to 0.25,0.125,0.25,0.01,1,0.06,1,1,1,0.5,1
